Source: the NIST ThermoML archive (doi:10.1016/j.jct.2013.12.025)
± gives the expanded uncertainty stated by the source.

Assay: refractive index (Na D-line) (dimensionless); xn = mol fraction of the nth substance listed
Settings: 101 kPa, Liquid, Standard Abbe refractometry

C=C[Si](C)(C)O[Si](C)(C)C=C [1,3-diethenyl-1,1,3,3-tetramethyldisiloxane] + O=[N+]([O-])c1ccccc1
refractive index (283.15 K, x1 = 0.05): 1.54466 ± 0.00032
refractive index (283.15 K, x1 = 0.1): 1.53289 ± 0.00032
refractive index (283.15 K, x1 = 0.15): 1.52202 ± 0.00032
refractive index (283.15 K, x1 = 0.2): 1.51193 ± 0.00032
refractive index (283.15 K, x1 = 0.25): 1.50266 ± 0.00032
refractive index (283.15 K, x1 = 0.3): 1.49408 ± 0.00032
refractive index (283.15 K, x1 = 0.3508): 1.48595 ± 0.00032
refractive index (283.15 K, x1 = 0.4001): 1.47862 ± 0.00032
refractive index (283.15 K, x1 = 0.4501): 1.4717 ± 0.00032
refractive index (283.15 K, x1 = 0.4999): 1.46522 ± 0.00032
refractive index (283.15 K, x1 = 0.55): 1.45917 ± 0.00032
refractive index (283.15 K, x1 = 0.6001): 1.45344 ± 0.00032
refractive index (283.15 K, x1 = 0.6487): 1.44824 ± 0.00032
refractive index (283.15 K, x1 = 0.6999): 1.44306 ± 0.00032
refractive index (283.15 K, x1 = 0.7499): 1.43821 ± 0.00032
refractive index (283.15 K, x1 = 0.7999): 1.4337 ± 0.00032
refractive index (283.15 K, x1 = 0.8497): 1.42937 ± 0.00032
refractive index (283.15 K, x1 = 0.9): 1.42527 ± 0.00032
refractive index (283.15 K, x1 = 0.9499): 1.42134 ± 0.00032
refractive index (283.15 K, x1 = 1): 1.4176 ± 0.00032
refractive index (288.15 K, x1 = 0.05): 1.54219 ± 0.00032
refractive index (288.15 K, x1 = 0.1): 1.53042 ± 0.00032
refractive index (288.15 K, x1 = 0.15): 1.51955 ± 0.00032
refractive index (288.15 K, x1 = 0.2): 1.50945 ± 0.00032
refractive index (288.15 K, x1 = 0.25): 1.50017 ± 0.00032
refractive index (288.15 K, x1 = 0.3): 1.49154 ± 0.00032
refractive index (288.15 K, x1 = 0.3508): 1.48341 ± 0.00032
refractive index (288.15 K, x1 = 0.4001): 1.47608 ± 0.00032
refractive index (288.15 K, x1 = 0.4501): 1.46914 ± 0.00032
refractive index (288.15 K, x1 = 0.4999): 1.46267 ± 0.00032
refractive index (288.15 K, x1 = 0.55): 1.45661 ± 0.00032
refractive index (288.15 K, x1 = 0.6001): 1.45088 ± 0.00032
refractive index (288.15 K, x1 = 0.6487): 1.44565 ± 0.00032
refractive index (288.15 K, x1 = 0.6999): 1.44044 ± 0.00032
refractive index (288.15 K, x1 = 0.7499): 1.43565 ± 0.00032
refractive index (288.15 K, x1 = 0.7999): 1.43109 ± 0.00032
refractive index (288.15 K, x1 = 0.8497): 1.42677 ± 0.00032
refractive index (288.15 K, x1 = 0.9): 1.42262 ± 0.00032
refractive index (288.15 K, x1 = 0.9499): 1.4187 ± 0.00032
refractive index (288.15 K, x1 = 1): 1.41495 ± 0.00032
refractive index (293.15 K, x1 = 0.05): 1.5397 ± 0.00032
refractive index (293.15 K, x1 = 0.1): 1.52796 ± 0.00032
refractive index (293.15 K, x1 = 0.15): 1.51705 ± 0.00032
refractive index (293.15 K, x1 = 0.2): 1.50694 ± 0.00032
refractive index (293.15 K, x1 = 0.25): 1.49764 ± 0.00032
refractive index (293.15 K, x1 = 0.3): 1.48901 ± 0.00032
refractive index (293.15 K, x1 = 0.3508): 1.48085 ± 0.00032
refractive index (293.15 K, x1 = 0.4001): 1.47352 ± 0.00032
refractive index (293.15 K, x1 = 0.4501): 1.46659 ± 0.00032
refractive index (293.15 K, x1 = 0.4999): 1.46009 ± 0.00032
refractive index (293.15 K, x1 = 0.55): 1.45401 ± 0.00032
refractive index (293.15 K, x1 = 0.6001): 1.4483 ± 0.00032
refractive index (293.15 K, x1 = 0.6487): 1.44307 ± 0.00032
refractive index (293.15 K, x1 = 0.6999): 1.43784 ± 0.00032
refractive index (293.15 K, x1 = 0.7499): 1.43306 ± 0.00032
refractive index (293.15 K, x1 = 0.7999): 1.42845 ± 0.00032
refractive index (293.15 K, x1 = 0.8497): 1.42414 ± 0.00032
refractive index (293.15 K, x1 = 0.9): 1.41999 ± 0.00032
refractive index (293.15 K, x1 = 0.9499): 1.41606 ± 0.00032
refractive index (293.15 K, x1 = 1): 1.41227 ± 0.00032
refractive index (298.15 K, x1 = 0.05): 1.53724 ± 0.00032
refractive index (298.15 K, x1 = 0.1): 1.52547 ± 0.00032
refractive index (298.15 K, x1 = 0.15): 1.51459 ± 0.00032
refractive index (298.15 K, x1 = 0.2): 1.50445 ± 0.00032
refractive index (298.15 K, x1 = 0.25): 1.49511 ± 0.00032
refractive index (298.15 K, x1 = 0.3): 1.48643 ± 0.00032
refractive index (298.15 K, x1 = 0.3508): 1.47825 ± 0.00032
refractive index (298.15 K, x1 = 0.4001): 1.47089 ± 0.00032
refractive index (298.15 K, x1 = 0.4501): 1.46395 ± 0.00032
refractive index (298.15 K, x1 = 0.4999): 1.45748 ± 0.00032
refractive index (298.15 K, x1 = 0.55): 1.45139 ± 0.00032
refractive index (298.15 K, x1 = 0.6001): 1.44568 ± 0.00032
refractive index (298.15 K, x1 = 0.6487): 1.44043 ± 0.00032
refractive index (298.15 K, x1 = 0.6999): 1.43521 ± 0.00032
refractive index (298.15 K, x1 = 0.7499): 1.43043 ± 0.00032
refractive index (298.15 K, x1 = 0.7999): 1.42584 ± 0.00032
refractive index (298.15 K, x1 = 0.8497): 1.42152 ± 0.00032
refractive index (298.15 K, x1 = 0.9): 1.41736 ± 0.00032
refractive index (298.15 K, x1 = 0.9499): 1.41343 ± 0.00032
refractive index (298.15 K, x1 = 1): 1.40965 ± 0.00032
refractive index (303.15 K, x1 = 0.05): 1.5348 ± 0.00032
refractive index (303.15 K, x1 = 0.1): 1.52302 ± 0.00032
refractive index (303.15 K, x1 = 0.15): 1.51211 ± 0.00032
refractive index (303.15 K, x1 = 0.2): 1.50196 ± 0.00032
refractive index (303.15 K, x1 = 0.25): 1.49265 ± 0.00032
refractive index (303.15 K, x1 = 0.3): 1.48396 ± 0.00032
refractive index (303.15 K, x1 = 0.3508): 1.47577 ± 0.00032
refractive index (303.15 K, x1 = 0.4001): 1.46841 ± 0.00032
refractive index (303.15 K, x1 = 0.4501): 1.46144 ± 0.00032
refractive index (303.15 K, x1 = 0.4999): 1.45493 ± 0.00032
refractive index (303.15 K, x1 = 0.55): 1.44883 ± 0.00032
refractive index (303.15 K, x1 = 0.6001): 1.44308 ± 0.00032
refractive index (303.15 K, x1 = 0.6487): 1.43783 ± 0.00032
refractive index (303.15 K, x1 = 0.6999): 1.43261 ± 0.00032
refractive index (303.15 K, x1 = 0.7499): 1.42778 ± 0.00032
refractive index (303.15 K, x1 = 0.7999): 1.42318 ± 0.00032
refractive index (303.15 K, x1 = 0.8497): 1.41887 ± 0.00032
refractive index (303.15 K, x1 = 0.9): 1.41471 ± 0.00032
refractive index (303.15 K, x1 = 0.9499): 1.41079 ± 0.00032
refractive index (303.15 K, x1 = 1): 1.407 ± 0.00032
